Experimental data: US7405230B2, “Phosphodiesterase 4 inhibitors, including N-substituted aniline and diphenylamine analogs” (Memory Pharmaceuticals Corporation, priority 2002, dated 2008)

Columns and labels:
Rats [1] = test: Passive avoidance in rats, an in vivo test for learning and memory (reversal of MK-801 amnesia); parameters: species or system rat (Male Spraque-Dawley (Harlan)); details: MK-801 0.1 mg/kg pretreatment, 24 hours after electric shock, compared to the vehicle (p<0.001)
Protocol: The test was performed as previously described (Zhang, H.-T., Crissman, A. M., Dorairaj, N. R., Chandler, L. J., and O'Donnell, J. M., Neuropsychopharmacology, 2000, 23, 198-204.). The apparatus (Model E10-16SC, Coulbourn Instruments, Allentown, Pa.) consisted of a two-compartment chamber with an illuminated compartment connected to a darkened compartment by a guillotine door. The floor of the darkened compartment consisted of stainless steel rods through which an electric foot-shock could be delivered from a constant current source. All experimental groups were first habituated to the apparatus the day before the start of the experiment. […] The latency for entering the darkened compartment was recorded. […] Twenty-four hours later, the rat was administered 0.1 mg/kg MK-801 or saline, 30 minutes prior to the injection of saline or test compound (dosed from […], which was 30 minutes before the retention test started. The rat was again placed in the illuminated compartment with the guillotine door open. The latency for entering the darkened compartment was recorded for up to 180 seconds, at which time the trial was terminated.
(§1) All data were analyzed by analyses of variance (ANOVA); individual comparisons were made using Kewman-Keuls tests. […]

Rats [2] = test: Radial arm maze task in rats, an in vivo test for learning and memory (reversal of MK-801 amnesia); parameters: species or system rat (male Spraque-Dawley (Harlan)); details: MK-801 0.1 mg/kg, i.p., compared to control (p<0.01)
Protocol: The test was performed as previously described (Zhang, H.-T., Crissman, A. M., Dorairaj, N. R., Chandler, L. J., and O'Donnell, J. M., Neuropsychopharmacology, 2000, 23, 198-204.). Five days after initial housing, rats (male Spraque-Dawley (Harlan) weighing 250 to 350 g) were placed in the eight-arm radial maze (each arm was 60×10×12 cm high; the maze was elevated 70 cm above the floor) for acclimation for two days. Rats were then placed individually in the center of the maze for 5 minutes with food pellets placed close to the food wells, and then, the next day, in the wells at the end of the arms; 2 sessions a day were conducted. Next, four randomly selected arms were then baited with one pellet of food each. The rat was restricted to the center platform (26 cm in diameter) for 15 seconds and then allowed to move freely throughout the maze until it collected all pellets of food or 10 minutes passed, whichever came first. Four parameters were recorded: 1) working memory errors, i.e., entries into baited arms that had already been visited during the same trial; 2) reference memory errors, i.e., entries into unbaited arms; 3) total arm entries; and 4) the test duration (seconds), i.e., the time spent in the collection of all the pellets in the maze. […]
as §1

Question: With `C[C@]12N[C@H](Cc3ccccc31)c1ccccc12` [MK-801] as the compound, how does the “Latency for entering the darkened compartment” value (Rats [1]) read?
Answer: markedly reduced this latency

Question: And the “Frequencies of working and reference memory errors” value (Rats [2])?
Answer: increased the frequencies of both working and reference memory errors
